Calls of active or inactive are those of the source. The calls are words filed in the database; no cut-off is given here.
How the values were obtained:
[1] = target: Epidermal growth factor receptor (Homo sapiens, UniProt P00533); assay: Inhibition of EGFR tyrosine kinase activity
[2] = test system: A-431; assay: Antiproliferative activity against human A431 cells after 72 hrs by MTT assay; conditions: A-431, 72 h
[3] = test system: A-431; assay: Reversibility of antiproliferative activity against human A431 cells after recovery for 68 hrs by MTT assay; conditions: A-431, 68 h
[4] = test system: A-431; assay: Reversibility of antiproliferative activity against human A431 cells after recovery for 68 hrs in presence of 50 uM DTT by MTT assay; conditions: A-431, 68 h
[5] = test system: A-431; assay: Reversibility of antiproliferative activity against human A431 cells after recovery for 68 hrs in presence of 100 uM DTT by MTT assay; conditions: A-431, 68 h
[6] = test system: A-431; assay: Induction of apoptosis in human A431 cells measured as increase in DNA fragmentation; assay type: functional, cell-based
[7] = test system: A-431; assay: Induction of necrosis in human A431 cells measured as increase of LDH release; assay type: functional, cell-based

Sequence of Epidermal growth factor receptor (P00533 whole entry): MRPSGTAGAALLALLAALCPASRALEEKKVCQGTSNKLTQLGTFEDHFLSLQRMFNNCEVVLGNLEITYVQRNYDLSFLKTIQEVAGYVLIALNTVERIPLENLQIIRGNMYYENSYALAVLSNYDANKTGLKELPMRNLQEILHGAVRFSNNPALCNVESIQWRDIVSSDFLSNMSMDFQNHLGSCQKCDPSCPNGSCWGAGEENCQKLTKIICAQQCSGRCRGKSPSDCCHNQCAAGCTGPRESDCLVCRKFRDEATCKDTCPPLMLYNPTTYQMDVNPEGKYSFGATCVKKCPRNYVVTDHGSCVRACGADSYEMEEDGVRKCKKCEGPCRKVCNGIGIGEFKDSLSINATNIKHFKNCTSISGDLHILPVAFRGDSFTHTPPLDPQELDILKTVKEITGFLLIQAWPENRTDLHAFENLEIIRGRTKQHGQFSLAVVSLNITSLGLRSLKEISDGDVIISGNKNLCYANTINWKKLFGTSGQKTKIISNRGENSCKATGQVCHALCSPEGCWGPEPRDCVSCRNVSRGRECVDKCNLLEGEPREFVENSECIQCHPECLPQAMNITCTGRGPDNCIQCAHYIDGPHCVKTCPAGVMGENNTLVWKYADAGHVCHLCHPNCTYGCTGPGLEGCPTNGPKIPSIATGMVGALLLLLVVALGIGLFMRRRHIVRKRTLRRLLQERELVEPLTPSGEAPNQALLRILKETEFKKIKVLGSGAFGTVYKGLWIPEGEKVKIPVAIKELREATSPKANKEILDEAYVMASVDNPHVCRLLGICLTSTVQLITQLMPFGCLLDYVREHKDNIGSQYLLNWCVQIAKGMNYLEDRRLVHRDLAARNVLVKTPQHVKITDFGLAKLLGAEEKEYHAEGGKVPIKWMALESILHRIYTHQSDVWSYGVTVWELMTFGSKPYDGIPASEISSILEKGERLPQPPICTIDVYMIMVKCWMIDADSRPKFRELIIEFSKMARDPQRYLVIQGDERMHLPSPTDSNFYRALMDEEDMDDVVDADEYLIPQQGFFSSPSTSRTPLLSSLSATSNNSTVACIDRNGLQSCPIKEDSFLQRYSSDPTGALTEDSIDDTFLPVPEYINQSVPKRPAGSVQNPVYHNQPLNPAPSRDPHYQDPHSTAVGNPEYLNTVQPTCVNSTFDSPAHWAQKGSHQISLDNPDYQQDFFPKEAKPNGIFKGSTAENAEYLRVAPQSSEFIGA

Structure (SMILES)	IC50 [1]	IC50 [2]	IC50 [3]	IC50 [4]	IC50 [5]	Activity [6]	Activity [7]
O=C(CCCCC1CCSS1)Nc1ccc2ncnc(Nc3cccc(Br)c3)c2c1 (stereo not drawn)	> 3 µM	21.6 µM					
O=C(Nc1ccc2ncnc(Nc3cccc(Br)c3)c2c1)C1CCSS1 (stereo not drawn)	0.06 µM	7.9 µM	9.23 µM	22.4 µM	28.1 µM	Dose-dependent effect	inactive
C=CC(=O)Nc1ccc2ncnc(Nc3cccc(Br)c3)c2c1							inactive
O=C(CC1CCSS1)Nc1ccc2ncnc(Nc3cccc(Br)c3)c2c1 (stereo not drawn)	> 3 µM	13.7 µM					
COc1cc2ncnc(Nc3cccc(Br)c3)c2cc1OC							inactive

— ChEMBL document CHEMBL1137325, “Multitarget-directed drug design strategy: a novel molecule designed to block epidermal growth factor receptor (EGFR) and to exert proapoptotic effects” (J Med Chem, 2006)
